Columns and labels:
[1] = molecular target: T1, Endonuclease III-like protein 1 (Homo sapiens) (UniProt P78549); settings: Hit No;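 further: enzyme assay tracking NTHL1 cutting and release of a quenched double-stranded DNA oligo substrate, read as fluorescence at 594 nm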
T1 sequence (whole entry): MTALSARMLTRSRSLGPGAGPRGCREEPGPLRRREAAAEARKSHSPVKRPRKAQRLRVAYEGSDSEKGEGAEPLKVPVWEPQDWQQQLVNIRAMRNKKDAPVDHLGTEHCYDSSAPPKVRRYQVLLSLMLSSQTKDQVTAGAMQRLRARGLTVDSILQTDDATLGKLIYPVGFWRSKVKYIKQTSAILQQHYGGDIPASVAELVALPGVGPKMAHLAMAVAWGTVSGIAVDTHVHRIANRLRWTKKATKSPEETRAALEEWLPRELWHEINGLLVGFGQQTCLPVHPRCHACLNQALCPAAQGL
Description: Inhibition of NTHL1 by quantifying inhibition of NTHL1-mediated cleavage and dissociation of quenched duplex DNA oligonucleotides, measured as fluorescence at 594 nm.

[2] = molecular target: T2, Adenine DNA glycosylase (Homo sapiens) (UniProt Q9UIF7); settings: Hit No;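 further: human MUTYH activity read as 594 nm fluorescence from cleavage and release of a quenched DNA duplex, coupled with APE1 for strand incision, lower signal meaning inhibition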
T2 sequence (whole entry): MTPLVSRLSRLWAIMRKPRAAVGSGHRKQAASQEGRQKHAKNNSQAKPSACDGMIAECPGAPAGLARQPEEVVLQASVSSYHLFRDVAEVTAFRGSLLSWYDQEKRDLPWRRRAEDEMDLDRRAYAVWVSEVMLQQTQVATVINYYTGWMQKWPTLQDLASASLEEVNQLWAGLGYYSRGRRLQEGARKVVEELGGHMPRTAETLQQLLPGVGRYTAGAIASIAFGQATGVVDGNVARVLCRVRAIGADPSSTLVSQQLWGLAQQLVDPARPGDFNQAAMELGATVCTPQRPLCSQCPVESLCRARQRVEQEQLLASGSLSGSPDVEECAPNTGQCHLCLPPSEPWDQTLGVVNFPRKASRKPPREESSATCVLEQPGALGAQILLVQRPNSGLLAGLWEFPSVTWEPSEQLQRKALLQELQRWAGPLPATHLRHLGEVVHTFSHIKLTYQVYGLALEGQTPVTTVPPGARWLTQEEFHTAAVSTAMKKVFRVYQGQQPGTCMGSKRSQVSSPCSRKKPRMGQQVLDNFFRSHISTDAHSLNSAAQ
Description: Inhibition of MUTYH by quantifying inhibition of MUTYH-mediated cleavage and dissociation of quenched duplex DNA oligonucleotides, measured as fluorescence at 594 nm. To generate a functional strand incision and increase turn-over this assay is coupled to APE1.

[3] = molecular target: Uracil-DNA glycosylase (Homo sapiens) (UniProt P13051); settings: Hit No;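 further: UNG excision on a quenched double-stranded DNA oligo probe, with APE1 added for strand incision and turnover, read as fluorescence at 594 nm as strands separate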
Description: Inhibition of UNG by quantifying inhibition of UNG-mediated cleavage and dissociation of quenched duplex DNA oligonucleotides, measured as fluorescence at 594 nm. To generate a functional strand incision and increase turn-over this assay is coupled to APE1.

[4] = molecular target: T3, Single-strand selective monofunctional uracil DNA glycosylase (Homo sapiens) (UniProt Q53HV7); settings: Hit No;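 further: enzymatic SMUG1 assay coupled with APE1, reading fluorescence at 594 nm released when a quenched double-stranded DNA oligonucleotide substrate is cleaved and separated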
T3 sequence (whole entry): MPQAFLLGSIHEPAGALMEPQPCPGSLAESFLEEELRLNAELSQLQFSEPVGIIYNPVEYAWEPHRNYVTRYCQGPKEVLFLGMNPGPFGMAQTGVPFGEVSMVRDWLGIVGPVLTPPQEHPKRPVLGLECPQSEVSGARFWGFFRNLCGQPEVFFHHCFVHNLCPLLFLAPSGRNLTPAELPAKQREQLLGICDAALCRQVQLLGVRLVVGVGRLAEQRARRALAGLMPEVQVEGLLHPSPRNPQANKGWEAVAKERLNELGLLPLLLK
Description: Inhibition of SMUG1 by quantifying inhibition of SMUG1-mediated cleavage and dissociation of quenched duplex DNA oligonucleotides, measured as fluorescence at 594 nm. To generate a functional strand incision and increase turn-over this assay is coupled to APE1.

[5] = molecular target: Endonuclease 8-like 1 (Homo sapiens) (UniProt Q96FI4); settings: Hit No;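 further: fluorescence at 594 nm from quenched duplex DNA oligonucleotides released by NEIL1 cleavage and strand separation, reported as reduction of this enzyme activity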
Description: Inhibition of NEIL1 by quantifying inhibition of NEIL1-mediated cleavage and dissociation of quenched duplex DNA oligonucleotides, measured as fluorescence at 594 nm.

[6] = molecular target: T4, Endonuclease 8-like 2 (Homo sapiens) (UniProt Q969S2); settings: Hit No;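 further: fluorescence at 594 nm reports NEIL2 cutting and release of a quenched double-stranded DNA oligo substrate, reduced signal read as inhibition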
T4 sequence (whole entry): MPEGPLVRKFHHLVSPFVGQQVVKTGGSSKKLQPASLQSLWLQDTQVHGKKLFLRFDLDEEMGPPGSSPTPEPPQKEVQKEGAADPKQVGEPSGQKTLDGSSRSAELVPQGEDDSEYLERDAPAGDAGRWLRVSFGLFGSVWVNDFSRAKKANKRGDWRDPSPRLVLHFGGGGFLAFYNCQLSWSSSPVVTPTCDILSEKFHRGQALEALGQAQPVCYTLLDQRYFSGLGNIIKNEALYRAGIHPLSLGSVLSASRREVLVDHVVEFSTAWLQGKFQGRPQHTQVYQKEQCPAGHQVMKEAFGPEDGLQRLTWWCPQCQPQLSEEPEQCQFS
Description: Inhibition of NEIL2 by quantifying inhibition of NEIL2-mediated cleavage and dissociation of quenched duplex DNA oligonucleotides, measured as fluorescence at 594 nm.

[7] = molecular target: G/T mismatch-specific thymine DNA glycosylase (Homo sapiens) (UniProt Q13569); settings: Hit No;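 further: human TDG cleavage of quenched duplex DNA oligonucleotides coupled to APE1, strand release read as fluorescence at 594 nm, inhibition of TDG activity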
Description: Inhibition of TDG by quantifying inhibition of TDG-mediated cleavage and dissociation of quenched duplex DNA oligonucleotides, measured as fluorescence at 594 nm. To generate a functional strand incision and increase turn-over this assay is coupled to APE1.

[8] = molecular target: Methyl-CpG-binding domain protein 4 (Homo sapiens) (UniProt O95243); settings: Hit No;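 further: MBD4 activity read as fluorescence at 594 nm from cleavage and release of a quenched duplex DNA oligonucleotide, with APE1 coupled to incise the strand and raise turnover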
Description: Inhibition of MBD4 by quantifying inhibition of MBD4-mediated cleavage and dissociation of quenched duplex DNA oligonucleotides, measured as fluorescence at 594 nm. To generate a functional strand incision and increase turn-over this assay is coupled to APE1.

[9] = molecular target: N-glycosylase/DNA lyase (Homo sapiens) (UniProt O15527);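 further: OGG1 cleavage of a quenched duplex DNA oligonucleotide, coupled to APE1 for strand incision, read as fluorescence at 594 nm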
Description: Inhibition of OGG1 by quantifying inhibition of OGG1-mediated cleavage and dissociation of quenched duplex DNA oligonucleotides, measured as fluorescence at 594 nm. To generate a functional strand incision and increase turn-over this assay is coupled to APE1.

[10] = Compound Concentration 10.0 uM, Hit No
[11] = Compound Concentration 1.0 uM, Hit No

G/T mismatch-specific thymine DNA glycosylase (Homo sapiens), sequence (Q13569 whole entry, the tested form may be a part): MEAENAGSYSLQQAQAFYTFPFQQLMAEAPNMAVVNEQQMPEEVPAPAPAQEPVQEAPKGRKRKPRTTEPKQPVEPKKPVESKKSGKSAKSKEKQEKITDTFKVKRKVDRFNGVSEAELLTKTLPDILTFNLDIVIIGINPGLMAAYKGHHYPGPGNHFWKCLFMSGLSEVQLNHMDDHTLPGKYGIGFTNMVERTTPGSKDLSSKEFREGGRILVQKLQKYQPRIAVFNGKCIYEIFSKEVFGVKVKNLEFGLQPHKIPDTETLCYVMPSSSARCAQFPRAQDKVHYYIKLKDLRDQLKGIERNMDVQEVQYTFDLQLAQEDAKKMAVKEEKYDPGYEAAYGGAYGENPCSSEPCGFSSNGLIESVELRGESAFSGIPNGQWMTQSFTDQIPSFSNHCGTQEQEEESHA
Endonuclease 8-like 1 (Homo sapiens), sequence (Q96FI4 whole entry): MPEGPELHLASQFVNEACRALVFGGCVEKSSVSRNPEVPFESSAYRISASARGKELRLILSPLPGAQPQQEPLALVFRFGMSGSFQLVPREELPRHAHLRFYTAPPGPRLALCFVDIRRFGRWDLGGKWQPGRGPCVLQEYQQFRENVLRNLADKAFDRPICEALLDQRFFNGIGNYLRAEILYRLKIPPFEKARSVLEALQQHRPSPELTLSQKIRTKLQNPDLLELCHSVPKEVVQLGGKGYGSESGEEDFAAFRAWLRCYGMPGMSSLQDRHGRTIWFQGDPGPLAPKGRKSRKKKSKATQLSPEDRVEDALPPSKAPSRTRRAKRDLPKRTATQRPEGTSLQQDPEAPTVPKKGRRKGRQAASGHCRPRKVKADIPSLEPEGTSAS
N-glycosylase/DNA lyase (Homo sapiens), sequence (O15527 whole entry): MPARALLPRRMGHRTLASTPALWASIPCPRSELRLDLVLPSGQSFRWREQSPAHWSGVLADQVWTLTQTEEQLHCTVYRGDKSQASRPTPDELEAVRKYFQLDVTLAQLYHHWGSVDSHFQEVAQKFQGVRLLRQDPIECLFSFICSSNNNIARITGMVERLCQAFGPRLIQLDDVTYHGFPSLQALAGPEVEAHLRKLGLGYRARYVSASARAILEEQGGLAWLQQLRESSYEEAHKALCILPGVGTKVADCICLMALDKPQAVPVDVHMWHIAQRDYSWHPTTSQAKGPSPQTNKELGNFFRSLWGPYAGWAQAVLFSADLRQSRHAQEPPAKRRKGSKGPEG
Methyl-CpG-binding domain protein 4 (Homo sapiens), sequence (O95243 whole entry, the tested form may be a part): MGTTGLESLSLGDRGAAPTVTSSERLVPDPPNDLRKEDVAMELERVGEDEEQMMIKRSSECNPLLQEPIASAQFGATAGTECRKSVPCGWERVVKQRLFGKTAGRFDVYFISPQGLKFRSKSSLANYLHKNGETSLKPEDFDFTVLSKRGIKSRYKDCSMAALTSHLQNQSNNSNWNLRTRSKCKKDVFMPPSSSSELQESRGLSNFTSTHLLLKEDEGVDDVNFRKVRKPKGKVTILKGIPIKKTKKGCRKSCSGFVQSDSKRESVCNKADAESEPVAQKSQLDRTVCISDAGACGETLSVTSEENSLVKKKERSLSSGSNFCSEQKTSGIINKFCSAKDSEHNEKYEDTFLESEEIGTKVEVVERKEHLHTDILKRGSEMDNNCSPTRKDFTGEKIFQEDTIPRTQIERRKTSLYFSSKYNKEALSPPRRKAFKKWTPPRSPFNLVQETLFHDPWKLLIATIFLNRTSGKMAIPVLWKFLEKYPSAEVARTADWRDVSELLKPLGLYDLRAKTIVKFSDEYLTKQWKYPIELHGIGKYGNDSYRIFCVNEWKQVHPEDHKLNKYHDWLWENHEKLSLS
Uracil-DNA glycosylase (Homo sapiens), sequence (P13051 whole entry): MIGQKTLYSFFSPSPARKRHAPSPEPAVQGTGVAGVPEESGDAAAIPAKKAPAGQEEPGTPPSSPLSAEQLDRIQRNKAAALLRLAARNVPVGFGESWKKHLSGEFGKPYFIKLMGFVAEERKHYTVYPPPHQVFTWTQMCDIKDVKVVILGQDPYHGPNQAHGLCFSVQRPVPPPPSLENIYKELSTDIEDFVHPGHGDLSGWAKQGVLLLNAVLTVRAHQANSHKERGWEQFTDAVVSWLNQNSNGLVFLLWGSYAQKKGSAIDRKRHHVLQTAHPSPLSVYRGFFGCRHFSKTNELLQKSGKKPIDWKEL

| inhibition ([1]; Compound Concentration 10.0 uM) [%] | inhibition ([2]; Compound Concentration 10.0 uM) [%] | inhibition ([3]; Compound Concentration 10.0 uM) [%] | inhibition ([4]; Compound Concentration 10.0 uM) [%] | inhibition ([5]; Compound Concentration 10.0 uM) [%] | inhibition ([6]; Compound Concentration 10.0 uM) [%] | inhibition ([7]; Compound Concentration 10.0 uM) [%] | inhibition ([8]; Compound Concentration 10.0 uM) [%] | inhibition [9, 10] [%] | inhibition ([1]; Compound Concentration 1.0 uM) [%] | inhibition ([2]; Compound Concentration 1.0 uM) [%] | inhibition ([3]; Compound Concentration 1.0 uM) [%] | inhibition ([4]; Compound Concentration 1.0 uM) [%] | inhibition ([5]; Compound Concentration 1.0 uM) [%] | inhibition ([6]; Compound Concentration 1.0 uM) [%] | inhibition ([7]; Compound Concentration 1.0 uM) [%] | inhibition ([8]; Compound Concentration 1.0 uM) [%] | inhibition [9, 11] [%] | inhibition ([9]; Compound Concentration 10.0 uM, Hit Yes) [%] | SMILES |
| --- | --- | --- | --- | --- | --- | --- | --- | --- | --- | --- | --- | --- | --- | --- | --- | --- | --- | --- | --- |
| -6.88 | 18.2 | 7.75 | 17.6 | -5.89 | 8.19 | 69.6 | 73.2 | 19.3 |  |  |  |  |  |  |  |  |  |  | C[C@@H]1C[C@H](C)CN(c2ncc(Cl)c(Nc3ccc4c(c3)cc(OC(C)(C)C(=O)O)c(=O)n4C)n2)C1 |
| -2.6 | 15.4 | 7.59 | 23 | -3.17 | -2.53 | 55.2 | 75 | 16.2 |  |  |  |  |  |  |  |  |  |  | c1ccc(C2CCN(c3cnc4c(N5CCOCC5)nccn34)CC2)cc1 |
| 8.57 | -0.105 | 3.87 | 12.4 | -5.29 | 4.61 | 47.9 | 54.2 | -4.05 |  |  |  |  |  |  |  |  |  |  | CC(C)c1ccc(CC(=O)N2CCC[C@@H](c3cccc(OC(C)(C)C(=O)O)c3)C2)cc1 |
| 1.34 | -5.57 | 9.26 | 13.7 | -3.17 | -1.51 | 98.5 | 57.7 | 13.5 |  |  |  |  |  |  |  |  |  |  | CCCCCNC(=O)N1CCC(CN(Cc2ccc(Cl)cc2)Cc2ccc([N+](=O)[O-])s2)C1 (centres undefined) |
| 1.34 | 0.879 | 0.0471 | 7.75 | -4.53 | 4.36 | 47.2 | 58.9 | 31.6 |  |  |  |  |  |  |  |  |  |  | CC1(C)CCC(C)(C)c2cc(NC(=O)c3ccc(C(=O)O)cc3)ccc21 |
|  |  |  |  |  |  |  |  |  | -3.26 | -1.09 | 0.688 | 4.46 | -9.83 | -1.25 | 35.8 | 55.1 | 5 |  | CC(C)CC(=O)N1CCc2nc(-c3ccc(Br)cc3)nc(N(C)Cc3ccccc3)c2C1 |
| -1.31 | 10.5 | 3.71 | 20.9 | 0.798 | 2.93 | 50.8 | -6.46 | 12 |  |  |  |  |  |  |  |  |  |  | Cc1cc([C@@H](C)Nc2ccccc2C(=O)O)c2nc(N3CCOCC3)cc(=O)n2c1 |
| 5.29 | 26 | 3.11 | 26.9 | -8.92 | -7.12 | 50.5 | 74.5 | 44.6 |  |  |  |  |  |  |  |  |  |  | CCCCCCCN(CCc1ccc(SC(C)(C)C(=O)O)cc1)C(=O)Nc1ccc(F)cc1F |
| 2.05 | 24.5 | 2.5 | 12.3 | -1.4 | 3.25 | 49.5 | 42.6 | 31.6 |  |  |  |  |  |  |  |  |  |  | CC[C@@H](Nc1c(C#N)c(-c2ccc(-c3cccc(C)c3F)cc2)nc2cnccc12)C(=O)O |
| 17.8 | 29.3 | 6.35 | 47.4 | 0.619 | 3.34 | 98.9 | 67.1 |  |  |  |  |  |  |  |  |  |  | 91.8 | Cc1oc2ccccc2c1Cc1cc(I)c(OCC(=O)O)c(I)c1 |
| -5.89 | -1.52 | -1.09 | 6.73 | -3.62 | 6.65 | 59.1 | 67.8 | 31 |  |  |  |  |  |  |  |  |  |  | COCCCS(=O)(=O)c1cc(C)c(-c2ccc(F)c3c2CC[C@H]3Oc2ccc3c(c2)OC[C@H]3CC(=O)O)c(C)c1 |
| -9.83 | 16.7 | 6.53 | 8.97 | 2.13 | 14.1 | 50.4 | 69 | 9.82 |  |  |  |  |  |  |  |  |  |  | CN1CCN(c2ccnc(NCCc3ccccc3)n2)CC1 |
| 9.85 | 18.3 | 8 | 32.3 | -7.92 | 1.58 | 49.5 | 9.41 | 12 |  |  |  |  |  |  |  |  |  |  | CC(C)S(=O)(=O)c1ccc2nccc(Nc3ccc4scnc4c3)c2c1 |
| 7.43 | 18.6 | 2.96 | 17.6 |  | 1.25 | 72.9 | 24.9 | 4.91 |  |  |  |  |  |  |  |  |  |  | CC1=C(C#N)C(c2ccc3[nH]nc(C)c3c2)C(C#N)=C(C)N1 |
| 8.46 | -7.4 | -0.61 | 16.3 |  | 2.66 | 47.8 | 26.4 | -9.1 |  |  |  |  |  |  |  |  |  |  | COc1cc(Nc2nc(C)cc(-c3cnn4nc(OC)ccc34)n2)cc(C(F)(F)F)c1 |
| 8.57 | 2.96 | -3.65 | -2.05 |  | 0.531 | 99.9 | 64.1 | 24 |  |  |  |  |  |  |  |  |  |  | Cn1cc(C(=O)O)c2ccc(N3CCC(OCc4c(-c5c(Cl)cccc5Cl)noc4C4CC4)CC3)cc21 |
| -0.841 | -7.96 | 1.3 | 12.7 |  | -5.65 | 65 | 18 | 9.13 |  |  |  |  |  |  |  |  |  |  | CN(C)c1ncnc(-c2ccc3nc(Nc4cc(CN5CCN(C(=O)CC(F)(F)F)CC5)ccn4)[nH]c3c2)c1Cl |
| 5.94 | 12.7 | 4.09 | 24.3 |  | 4.87 | 79.3 | 65.2 | 46.7 |  |  |  |  |  |  |  |  |  |  | O=C1CCc2cc(Nc3cc(OC4CCOCC4)c([N+](=O)[O-])cc3Cl)ccc2N1 |
| -8.98 | -3.46 | -0.384 | 6.38 |  | -2.46 | 46.5 | 24.9 | 6.26 |  |  |  |  |  |  |  |  |  |  | COc1ccc(COc2ccc(Cc3cnc(N)nc3N)cc2OC)cc1 |
| 15.2 | -6.77 | 3.85 | 30.4 |  | -3.55 | 40.4 | 63.6 | 32.3 |  |  |  |  |  |  |  |  |  |  | O=C(O)Cc1cc(I)c(Oc2ccc(O)c(I)c2)c(I)c1 |
| -8.52 | 7.33 | 4.37 | 10.3 |  | 17.9 | 58.6 | 59.6 | 35.9 |  |  |  |  |  |  |  |  |  |  | Cc1c(NC(=O)COc2ccc(Cl)cc2C(=O)c2cc(F)cc(C(F)(F)F)c2)ccc(C(=O)O)c1F |
|  |  |  |  |  |  |  |  |  | 1.82 | 5.54 | 2.22 | 12.5 |  | -5.67 | 42.8 | 21.1 | 5.71 |  | CN1C(=O)[C@@H](N2CCc3cn(Cc4ccccc4)nc3C2=O)COc2ccccc21 |

Source: ChEMBL document CHEMBL5665443, “Enzyme Inhibitor Single Concentration assay results for EUbOPEN Chemogenomics Library” (2024)
